Measured values as given in US20240002441A1, “PEPTIDES AND USES THEREOF IN MODULATION OF AMYLOID-BETA PROTEIN DEGRADING PROTEASES” (priority 2020, published 2024).

What was measured:
STZ diabetic mouse model = assay: STZ diabetic mouse model, kidney inflammation and fibrosis, ND and STZ mice (Example 14); assay type: in vivo; settings: for post treatment blood glucose compared with vehicle: 1 mg/kg s.c. osmotic minipump
Protocol: Mice were divided into four groups, two groups of mice remained untreated (ND) and two groups of mice were treated with STZ (150 mg/kg) by i.p. injection 1 week before starting treatment with SEQ ID NO. 2 or vehicle. Before treatment with SEQ ID NO. 2 or vehicle began, one week post STZ administration, 24 hour urine and blood samples were taken and blood glucose was assessed in all mice. The two ND groups and the two STZ treatment groups were then treated with either vehicle (10% DMSO/PBS) only or SEQ ID NO: 2 (1 mg/kg) subcutaneously by osmotic minipump. The mice were then monitored for 3 months before sacrifice. Monitoring included assessing the weight of each animal every day, taking blood samples biweekly and 24 hour urine samples at 1, 2 and 3 months post treatment. 24 hour urine samples were collected from mice placed in metabolic cages. At 3 months after treatment, a blood sample was collected (cardiac bleed) and the animals were sacrificed. Kidney and heart tissues were collected and weight and the tissues processed for in vitro analysis.
Urine samples were analysed for urinary albumin ELISA. The volume of urine was measured and then samples were diluted by 1:8000 with water. The samples were incubated for 1 h in antibody-coated 96-well plates (in duplicate). After incubation, a Development solution (100 μL) containing sandwich antibody was added to the wells and the samples incubated for 10 minutes in the dark. Stop solution (100 μL) was added and the optical density was measured at 450 nm.
The kidney tissue samples were analysed for fibrosis using Masson's trichrome staining. 4 μm-thick paraffin-embedded kidneys were sectioned. After dewaxing, sections were post-fixed in Bouin's fixative overnight. The slides were stained in Weigert's iron haematoxylin followed by Biebrich scarlet-acid fuchsin solution. The slides were differentiated in phosphomolybdic-phosphotungstic acid solution and then further stained in aniline blue solution. After differentiation in 1% acetic acid solution the slides were mounted with mounting medium and the sections were imaged on an Aperio Slide Scanner at ×20 magnification. The images were analysed on ImageJ.
Kidney samples in mice sacrificed one month after treatment were also analysed for the presence of IL-6 by western blot analysis. Homogenised kidney samples were heat-denatured and separated using SDS-PAGE. The membranes were incubated with IL-6 primary antibody at 1:500 dilution, followed by incubation with a secondary antibody (goad anti-rabbit antibody at 1:16000) and developed the following day using enhanced chemiluminescence (ECL) as a substrate. β-actin was used as a loading control.

5×FAD transgenic mice = assay: 5×FAD transgenic mouse model of Alzheimer's Disease (Example 15); assay type: in vivo
Protocol: All animal experiments were conducted in strict accordance with the Australian Code of Practice for the Care and Use of Animals for Scientific Purposes. Local approval was obtained from The University of Queensland's Animal Ethics Committee. All wild-type (WT) and transgenic mice (5×FAD tg) used were from the same litters to act as appropriate littermate controls. Thirty-four 2.5-3-month-old female and twenty-five 2.5-3-month-old male mice were used in this study. Animals were housed in groups of 3-5 animals per cage and maintained on a 12 hr light-dark cycle. Food and water were provided ad libitum.
All testing was conducted between 8 AM-6 PM, at approximately the same time each day. Prior to commencing any behavioural testing, mice were habituated to handling and handler smell to minimize handling-related stress. Each mouse was handled daily by the experimenter conducting the behavioural tasks for 30-s to 1-min each day. Handling involved picking up the mouse (by the base of the tail) from the home cage and placing in the palm of a gloved hand. This process was repeated daily, at approximately the same time each day, for a total of 8 days prior to testing. The bedding of the animals' home cage was not changed 2-days prior habituation to handling and for the duration of the behavioural tests. […]
The Active Place Avoidance (APA) task assessing longer-term spatial learning and memory was conducted on all mice as previously described (Willis E F, Bartlett P F, Vukovic J. Protocol for Short- and Longer-term Spatial Learning and Memory in Mice. Front Behav Neurosci. 2017; 11:197. https://doi:10.3389/fnbeh.2017.00197). The APA arena (Bio-Signal Group, NY, USA) consisted of a 77 cm diameter metal grid floor fenced by a 32 cm high Perspex clear circular boundary. The elevated arena sits directly below a digital video camera (Point Gray, USA) and in the middle of the room with visual cues placed on all 4 of the room walls. The visual cues consisted of black and white symbols printed on A3-sized paper. Visual cues were randomly chosen and kept constant for the 5-days of testing, and a different set of visual cues were used for post-2A treatment testing. Room lighting was set at 62-63% white light and light intensity recordings were taken by placing the luxmeter in the centre of the arena before the start of each session and kept between 60-70 lux.
The arena was set to rotate clockwise (1 rpm). The shock zone where a brief electric shock (500 ms, 0.5 mA, track-dependent) is delivered through the grid floor, is set at a 270° (pre-2A treatment) or 90° (post-2A treatment) angle and width of 60°. […] Mice were to actively avoid this shock zone while the arena rotates clockwise.
The position of the mouse in the arena was tracked using an overhead camera linked to Tracker software (Bio-Signal Group). When the centre-point of the mouse entered the shock zone, as tracked by the overhead camera linked to the tracking software, it received an electric shock. During the trials, the researcher sat quietly behind a curtain, out of view of the arena. After the completion of a trial, each mouse was returned to the home cage and the metal grid, clear Perspex boundary and underlying floor were cleaned with 70% ethanol. All scat and urine were removed following the completion of the trial.
Peptide of SEQ ID NO. 2 was dissolved in dimethyl sulfoxide (DMSO), and subsequently diluted in Dulbecco's phosphate-buffered saline (DPBS; 10% DMSO final). Pre-treatment open field/activity monitor data was used as the pseudorandomisation parameter for assigning animals to treatment groups. At 12-14 weeks, male and female 5×FAD and WT littermates were intranasally administered either 10% DMSO in DPBS as vehicle treatment or SEQ ID NO. 2 in DPBS (1 mg/kg). Treatment commenced immediately after the completion of pre-treatment behavioural testing and was administered every other day for 1 month. Body weight was measured every second day prior to intranasal dosing. […]

In the case of “H-SLFELGKMIL-NH2 [SEQ ID NO:2, H2N-SLFELGKMIL-NH2]”, the “post treatment blood glucose compared with vehicle” value (STZ diabetic mouse model; ND mice) is reported as “similar”, the “urine volume per day” value (STZ diabetic mouse model; ND mice, before and after treatment) is reported as “the same before or after treatment” and the “kidney:bodyweight ratio” value (STZ diabetic mouse model; ND mice, peptide or vehicle) is reported as “remained the same”. For the same substance, the urinary albumin (STZ diabetic mouse model; ND mice, peptide or vehicle) was “remained the same”, the “kidney:bodyweight ratio, increase compared with STZ mice treated with vehicle” value (STZ diabetic mouse model; STZ mice) was “even more” and the “kidney IL-6 expression compared with vehicle treated STZ mice” value (STZ diabetic mouse model; STZ mice sacrificed one month after treatment, western blot) was “lower”. For the same substance, the “post treatment blood glucose compared with vehicle” value (STZ diabetic mouse model; STZ mice) was “marginally lower”, the urinary albumin (STZ diabetic mouse model; STZ mice, 2 and 3 months post treatment, with either vehicle or peptide) was “increased” and the “renal cortical fibrosis compared to STZ mice treated with vehicle” value (STZ diabetic mouse model; STZ mice, Masson's trichrome staining) was “tendency to be lower”. For the same substance, the “urine volume per day” value (STZ diabetic mouse model; STZ mice, whether treated with peptide or vehicle) was “increased urine volume per day”, the “active place avoidance behaviour, 5-day post-treatment performance” value (5×FAD transgenic mice; Tg mice, peptide versus vehicle) was “improved avoidance behavior” and the “IL-6 protein level in the cortex compared to Tg mice treated with vehicle” value (5×FAD transgenic mice; Tg mice, western blotting) was “reduction”. For the same substance, the “TNF-α protein level in the cortex compared to Tg mice treated with vehicle” value (5×FAD transgenic mice; Tg mice, western blotting) was “reduction”, the “number of shocks in the APA task at day 5 of testing, post-treatment versus pre-treatment” value (5×FAD transgenic mice; WT or Tg mice treated with peptide) was “significantly more” and the “frequency of entry to the novel arm in y-maze test, as % of entries to all other arms, pre-treatment compared with post-treatment” value (5×FAD transgenic mice; between groups) was “did not show significant difference”. The “number of shocks received post-treatment” value (5×FAD transgenic mice; between groups) was “not significantly different” and the “time in the centre in the open field/activity test” value (5×FAD transgenic mice; each group of mice, pre- versus post-treatment) was “not significantly different”.
